The results in this text go back to patent US20240109910A1, “HEXAHYDRO-5,8-EPOXYCYCLOHEPTA[c]PYRAZOLE DERIVATIVES USEFUL AS MODULATORS OF THE CB1 AND / OR CB2 RECEPTORS” (JANSSEN PHARMACEUTICA NV, priority 2019, published 2024).

SMILES strings stand for the structures.

The target in this assay is hCB2 receptor (Homo sapiens, UniProt P34972). The experiment in a line: Agonism of CB2 by detection of cAMP using HTRF. As to conditions: CHO cells stably expressing CB2 receptor; for EC50: cAMP HTRF, forskolin-stimulated, average if tested more than once, read-out: hCB2 CHO EC50; for Emax: normalized to DMSO and maximal activation (5 nM CP55940). The format is cell-based. On the procedure:
Method for Assaying Agonism of CB1 or CB2 by Detection of cAMP Using Homogeneous Time-Resolved Fluorescence (HTRF®)
CHOP-K1 cells stably expressing the CB1 receptor (PerkinElmer, ES-110-C) or the CB2 receptor (PerkinElmer, ES-111-CF) were seeded into 384 well white TC-treated plates (Greiner 781080) at 7000 cells per well in Ham's media (Gibco #31765-035) supplemented with 10% FBS (Gibco #16000-044) and 500 μg/mL Geneticin (Gibco #10131-027) and cultured overnight. The next day, plates were washed one time in assay buffer (HBSS with Ca^2+ and Mg^2+ (Corning #21-023-CV)+20 mM HEPES (Corning #25-060-Cl) and 0.01% BSA (Sigma A2153)). In a separate compound plate (Greiner 781201-906), 50 nL of test compound or DMSO was transferred using the Echo 550 (Labcyte), then 40 μL/well of assay buffer with 0.5 mM IBMX, 2 μM Forskolin (Sigma F3917), and 0.01% BSA was added. For the CB1 assay, assay buffer was dumped from the cell plate and fresh assay buffer containing 0.5 mM IBMX (Sigma I5679) was added at 30 μL/well, and the plate was incubated for 1 hr at 37° C., 5% CO2. Following the IBMX pre-treatment step, buffer was dumped from the cell plate, and 20 μL/well of the assay buffer with test compound was transferred into the cell plate with a subsequent incubation of 20 min at room temperature. Reagents for cAMP detection (cisbio 62AM4PEJ) were prepared and subsequently transferred to the cell plate at 20 μL/well. Following a 1 hr incubation at room temperature, the plate was read on the Pherastar FX (BMG, excitation 320 nm, detection at 620 nm (donor) and 665 nm (acceptor)). The ratio of signal at 665 nm/620 nm was determined for each well in the plate. For each assay day, a cAMP standard curve was run in parallel to assess the range of response and determine the concentration of cAMP in each well. Control wells (n=16 of each) with no activation of CB1 receptor (DMSO) and maximal activation (5 nM CP55940, Sigma) were used to normalize the data and to determine signal-to-background ratio and Z′. For the CB2 assay, conditions were as described above for the CB1 assay, except that the IBMX preincubation step was not used and that the 20 min compound incubation step occurred in the incubator at 37° C., 5% CO2.
EC50 values were calculated from dose response curves by nonlinear regression analysis using PRISM software.
Representative compounds of the present invention were tested according to the procedures described in Biological Example 1 above, with results as listed in Table 3, below. If a compound was tested more than once (due to multiple samples or batches), then the value listed in Table 3 below represents the average of the measured values.
Background: Time-resolved FRET reads energy transfer from a long-lived donor to a nearby acceptor.

Sequence of hCB2 receptor (P34972 whole entry): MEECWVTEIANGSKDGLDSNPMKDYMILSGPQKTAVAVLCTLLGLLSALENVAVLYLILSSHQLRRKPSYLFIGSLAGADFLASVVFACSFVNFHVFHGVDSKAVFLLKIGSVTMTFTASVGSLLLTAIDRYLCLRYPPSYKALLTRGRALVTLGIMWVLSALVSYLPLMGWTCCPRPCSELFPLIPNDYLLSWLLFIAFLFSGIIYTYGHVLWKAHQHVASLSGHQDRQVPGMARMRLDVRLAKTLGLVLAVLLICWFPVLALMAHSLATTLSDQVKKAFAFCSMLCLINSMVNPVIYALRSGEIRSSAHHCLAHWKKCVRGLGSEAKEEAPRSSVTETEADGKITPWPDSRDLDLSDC

The EC50 is the midpoint of the concentration-response curve. For orientation: Emax means the size of the effect at its maximum, as opposed to the concentration needed. Turning to `CC(C)(C)NC(=O)c1c2c(nn1-c1cnccn1)C1CCC(C2)O1` (centres unmarked) [Compound 4, N-(tert-butyl)-2-(pyrazin-2-yl)-2,4,5,6,7,8-hexahydro-5,8-epoxycyclohepta[c]pyrazole-3-carboxamide], the concentration for a half-maximal effect (EC50) was determined as 4070 nM and the Emax worked out at 75.8%.
For `CC(C)(C)c1nc(-c2nn(-c3c[n+]([O-])ccn3)c3c2CC2CCC3O2)no1` (centres unmarked) [Compound 23, 3-(3-(5-(tert-butyl)-1,2,4-oxadiazol-3-yl)-5,6,7,8-tetrahydro-5,8-epoxycyclohepta[c]pyrazol-1(4H)-yl)pyrazine 1-oxide] the same measures were 0.1 nM and 100%.
With `CC(C)(C)c1nc(-c2nn(-c3cnccn3)c3c2CC2CCC3O2)no1` (centres unmarked) [Compound 32, 3-(5-(tert-butyl)-1,2,4-oxadiazol-3-yl)-1-(pyrazin-2-yl)-1,4,5,6,7,8-hexahydro-5,8-epoxycyclohepta[c]pyrazole], the EC50 was determined as 0.33 nM and the maximal response (Emax) came out at 100%.
For `CC(C)(C)NC(=O)c1c2c(nn1-c1cnccn1)CC1CCC2O1` (centres unmarked) [Compound 46] the same measures were 1650 nM and 85.8%.
As for `CC(C)(C)[C@@H](CO)NC(=O)c1nn(-c2c[n+]([O-])ccn2)c2c1C[C@@H]1CC[C@H]2O1` [Compound 15, 3-((5S,8R)-3-(((S)-1-hydroxy-3,3-dimethylbutan-2-yl)carbamoyl)-5,6,7,8-tetrahydro-5,8-epoxycyclohepta[c]pyrazol-1(4H)-yl)pyrazine 1-oxide], the concentration giving a half-maximal response (EC50) amounted to 0.34 nM and the Emax is 101%.
For `O=C(NC1(C(F)(F)F)CC1)c1nn(-c2c[n+]([O-])ccn2)c2c1CC1CCC2O1` (centres unmarked) [Compound 17, 3-(3-((1-(trifluoromethyl)cyclopropyl)carbamoyl)-5,6,7,8-tetrahydro-5,8-epoxycyclohepta[c]pyrazol-1(4H)-yl)pyrazine 1-oxide] the same measures were 0.12 nM and 100%.
For `CCC(C)(C)c1noc(-c2nn(-c3cnccn3)c3c2CC2CCC3O2)n1` (centres unmarked) [Compound 36, 3-(3-(tert-pentyl)-1,2,4-oxadiazol-5-yl)-1-(pyrazin-2-yl)-1,4,5,6,7,8-hexahydro-5,8-epoxycyclohepta[c]pyrazole] the same measures were 0.04 nM and 99.8%.
For `O=C(NC1(C(F)(F)F)CC1)c1nn(-c2cnccn2)c2c1CC1CCC2O1` (centres unmarked) [Compound 9, 1-(pyrazin-2-yl)-N-(1-(trifluoromethyl)cyclopropyl)-1,4,5,6,7,8-hexahydro-5,8-epoxycyclohepta[c]pyrazole-3-carboxamide] the same measures were 0.24 nM and 100%.
As for `CC(C)(C)[C@@H](CO)NC(=O)c1nn(-c2cnccn2)c2c1C[C@@H]1CC[C@H]2O1` [Compound 7, (5S,8R)-N-((S)-1-hydroxy-3,3-dimethylbutan-2-yl)-1-(pyrazin-2-yl)-1,4,5,6,7,8-hexahydro-5,8-epoxycyclohepta[c]pyrazole-3-carboxamide], the EC50 is 0.56 nM and the maximal effect (Emax) is 100%.
For `CC(C)(C)NC(=O)c1nn(-c2c[n+]([O-])ccn2)c2c1C1CCC(C2)O1` (centres unmarked) [Compound 48] the same measures were 1.98 nM and 99.9%.
For `CC(C)(C)c1nnc(-c2nn(-c3c[n+]([O-])ccn3)c3c2CC2CCC3O2)[s+]1[O-]` (centres unmarked) [Compound 28, 3-(3-(5-(tert-butyl)-1-oxido-1,3,4-thiadiazol-2-yl)-5,6,7,8-tetrahydro-5,8-epoxycyclohepta[c]pyrazol-1(4H)-yl)pyrazine 1-oxide] the same measures were 0.74 nM and 99%.
For `CC(C)(C)NC(=O)c1c2c(nn1-c1c[n+]([O-])ccn1)CC1CCC2O1` (centres unmarked) [Compound 49] the same measures were 2670 nM and 80.3%.
Regarding `CC(C)(CO)NC(=O)c1nn(-c2cnccn2)c2c1CC1CCC2O1` (centres unmarked) [Compound 11, N-(1-hydroxy-2-methylpropan-2-yl)-1-(pyrazin-2-yl)-1,4,5,6,7,8-hexahydro-5,8-epoxycyclohepta[c]pyrazole-3-carboxamide], the EC50 was 7.1 nM and the Emax is 99.2%.
For `CC(C)(C)c1csc(-c2nn(-c3c[n+]([O-])ccn3)c3c2CC2CCC3O2)n1` (centres unmarked) [Compound 44, 3-(3-(4-(tert-butyl)thiazol-2-yl)-5,6,7,8-tetrahydro-5,8-epoxycyclohepta[c]pyrazol-1(4H)-yl)pyrazine 1-oxide] the same measures were 46.3 nM and 84.6%.
For `CC(C)(C)NC(=O)c1nn(-c2ccc(F)cc2F)c2c1C1CCC(C2)O1` (centres unmarked) [Compound 47] the same measures were 559 nM and 82.5%.
On to `CC(C)(C)c1cnc(-c2nn(-c3cnccn3)c3c2CC2CCC3O2)s1` (centres unmarked) [Compound 34, 3-(5-(tert-butyl)thiazol-2-yl)-1-(pyrazin-2-yl)-1,4,5,6,7,8-hexahydro-5,8-epoxycyclohepta[c]pyrazole], for which the EC50 came out at 0.24 nM and the Emax is 99.7%.
For `CC(C)(C)NC(=O)c1c2c(nn1-c1ccc(F)cc1F)C1CCC(C2)O1` (centres unmarked) [Compound 2, N-(tert-butyl)-2-(2,4-difluorophenyl)-2,4,5,6,7,8-hexahydro-5,8-epoxycyclohepta[c]pyrazole-3-carboxamide] the same measures were 2980 nM and 72.8%.
With `CC(C)(C)c1cnc(-c2nn(-c3cnccn3)c3c2CC2CCC3O2)o1` (centres unmarked) [Compound 40, 3-(5-(tert-butyl)oxazol-2-yl)-1-(pyrazin-2-yl)-1,4,5,6,7,8-hexahydro-5,8-epoxycyclohepta[c]pyrazole], the half-maximal effective concentration (EC50) worked out at 0.13 nM and the maximal response (Emax) was 99.7%.
For `CC(C)(CO)NC(=O)c1nn(-c2c[n+]([O-])ccn2)c2c1CC1CCC2O1` (centres unmarked) [Compound 19, 3-(3-((1-hydroxy-2-methylpropan-2-yl)carbamoyl)-5,6,7,8-tetrahydro-5,8-epoxycyclohepta[c]pyrazol-1(4H)-yl)pyrazine 1-oxide] the same measures were 1 nM and 100%.
For `CC(C)(C)NC(=O)c1nn(-c2cnccn2)c2c1C1CCC(C2)O1` (centres unmarked) [Compound 45] the same measures were 22.9 nM and 98.1%.
For `CC(C)(C)NC(=O)c1c2c(nn1-c1c[n+]([O-])ccn1)C1CCC(C2)O1` (centres unmarked) [Compound 30, 3-(3-(tert-butylcarbamoyl)-5,6,7,8-tetrahydro-5,8-epoxycyclohepta[c]pyrazol-2(4H)-yl)pyrazine 1-oxide] the same measures were 7970 nM and 66.3%.
For the molecule `CC(C)(C)c1nnc(-c2nn(-c3cnccn3)c3c2CC2CCC3O2)o1` (centres unmarked) [Compound 39, 3-(5-(tert-butyl)-1,3,4-oxadiazol-2-yl)-1-(pyrazin-2-yl)-1,4,5,6,7,8-hexahydro-5,8-epoxycyclohepta[c]pyrazole], the concentration giving a half-maximal response (EC50) was 0.26 nM and the maximum response (Emax) turned out to be 100%.
